Values of other authors as cited in paper PMC12440824, “Chimeric deubiquitinase engineering reveals structural basis for specific inhibition of the mitophagy regulator USP30” (Nature Structural & Molecular Biology, 2025).
Where two headings read alike, the source gives them in different places.

What was measured:
recombinant USP30 = conditions: literature values in Extended Data Fig. 1; ref Extended Data Fig. 1; read-out: Ub-Rho IC50; cited from earlier work
USP30 [1] = conditions: literature values in Fig. 1b / Extended Data Fig. 1; ref Extended Data Fig. 1; read-out: Cellular ABPP IC50; cited from earlier work
USP30 [2] = test system: USP30; set-up: method as in Extended Data Fig. 1; conditions: ref Extended Data Fig. 1; read-out: Tetra-Ub cleavage IC50; cited from earlier work

Structure (SMILES) | IC50 (recombinant USP30) [nM] | IC50 (USP30 [1]) [nM] | IC50 (USP30 [2]) [nM]
COc1cc(NC(=O)[C@H](Cc2ccccc2)NC(=O)c2ccc(F)cc2)ccc1S(=O)(=O)NC1CCOCC1 [I-150] | < 50 | – | –
N#Cc1cccc(-c2nnc(C(=O)NC3CC(CF)N(C#N)C3)o2)c1 (stereo not shown) [Example 3] | 13 | – | –
CC(C)(C)NS(=O)(=O)c1cccc2c(NC(=O)[C@H](Cc3ccccc3)NC(=O)C3CCCCC3)cccc12 [MF-094] | 120 | < 200 | –
N#CN1CC[C@@H](NC(=O)c2cc(-c3ccccc3Oc3ccccc3)n[nH]2)C1 [FT385] | 2 | ~60 | –
C=C1C(=O)C23CCC1CC2C12CCCC(C)(COC1=O)C2CC3O (stereo not shown) [S3] | – | – | 10000 to 50000
